Assay results reported in patent US20220155322A1, “USE OF NATRIURETIC PEPTIDES TO ASSESS AND TREAT ACUTE KIDNEY INJURY” (Mayo Foundation for Medical Education and Research, priority 2019, published 2022).
Positions of bridges follow the written chain, without caps; N, C: chain ends. Residues, ends and D or L forms follow the SMILES beside them.

Key:
[1] = system: apoptosis pathway genes in HRPTC; experiment: Apoptosis pathway PCR array in H/R HRPTC; type: cell-based, human
Protocol: (§1) Apoptosis Pathway PCR Array and Caspase7 Real Time PCR: Two groups of HRPTC (vehicle and 10^−6 M CRRL269) that underwent oil induced H/R, and a negative control (Neg Ctrl) group with no H/R stress, were cultured in 6-well plates as described above, and total RNA was collected using the Trizol method (Thermo Fisher Scientific; Waltham, Mass.). RNA was reverse transcribed for cDNA for PCR RT2 array experiments. Apoptosis pathway PCR array (Qiagen; Germantown, Md.) was conducted using the SYBR green (Bio-Rad Laboratories; Hercules, Calif.) method in a Lightcycler 480 (Roche Diagonostics; Indianapolis, Ind.). Raw data were analyzed with the online Qiagen RT2 PCR analysis program. […] A Caspase7 RT-PCR primer (PPH00110C-200, Qiagen) was obtained, and RT-PCR reactions were performed using the SYBR green method in a Lightcycler 480. The B2M gene (primer PPH01094E, Qiagen) was used for normalization.

[2] = system: ischemic AKI model in normal mongrel canines; experiment: Ischemic AKI in canines: hormonal and renal function; type: in vivo, canine
[3] = system: human primary renal proximal tubular epithelial cells (HRPTC); experiment: Oil immersion induced hypoxia/reoxygenation (H/R) apoptosis, Caspase 3/7 IncuCyte live imaging; type: cell-based; set-up: apoptotic signals in HRPTC after H/R: dose or concentration left out as unconfirmed
Protocol: Oil Immersion Induced Hypoxia/Reoxygenation in vitro: HRPTC (ScienCell Research Laboratories; Carlsbad, Calif.) were seeded in 96-well plates and cultured for 1 day until 70-80% confluence. Passages 3-5 were used for experiments. Caspase 3/7 green apoptosis assay agent (Essen BioScience; Ann Arbor, Mich.) was added to the culture medium for detection of apoptosis. Plates were then transferred to a time-lapsed, live imaging system IncuCyte (Essen BioScience) for apoptosis monitoring for a total of 24 hours. H/R in cells was mimicked with mineral oil (Sigma, St Louis, Mo.) immersion (Meldrum et al., J Surg Res, 99:288-293, 2001). Cells were immersed in oil for 2 hours, washed twice, and placed in fresh medium containing vehicle (H/R group) or drugs. ANP, BNP, and CRRL269 were used at concentrations of 10^−8, 10^−7, or 10^−6 M. PKG (an important cGMP binding protein) activating analogue 8-pCPT-cGMP (Sigma; St. Louis, Mo.), which is specific for PKG and has low affinity for phosphodiesterases, was used at concentrations of 10^−6, 10^−5, or 10^−4 M. Cells were treated with 10^−6-, 5×10^−6-, or 1.5×10^−5 M PKG inhibitor KT-5823 (Abcam; Cambridge, Mass.) for 30 minutes before 10^−6 M CRRL269 was added. Cells without H/R stimulation were labeled as the negative control (Neg Ctrl) group. Apoptosis signals (e.g., apoptosis object counts) were analyzed with software provided by IncuCyte.

[4] = system: ischemic AKI model in normal mongrel canines; experiment: CNP levels (RIA) and renal NPPC mRNA (RT-PCR) in canine AKI; type: in vivo
[5] = system: Caspase7 gene; experiment: Caspase7 real time PCR in H/R HRPTC; type: cell-based, human; details: H/R with 10^−6 M CRRL269, H/R alone 1.89 fold, normalized to B2M
Protocol: as §1

[6] = system: ischemic AKI model in normal mongrel canines; type: in vivo, canine; details: after ischemia, 16.3 pmol/kg/min
Protocol: Ischemic Acute Kidney Injury in Canines: An ischemic AKI model in normal mongrel canines (male, 25-30 kg, n=5 per group) was created with high dose intravenous indomethacin infusion (10 mg/kg with NaHCO3[5 mg/kg] dissolved in 50 ml distilled water) followed by suprarenal ACC (Sandok et al., J Am Soc Nephrol, 196-202, 1992). Briefly, canines were anesthetized with intravenous pentobarbital (15-30 mg/kg) and fentanyl (4-12 μg/kg), intubated, and mechanically ventilated on air with supplemental oxygen, 3 L/minute, 12 cycles/minute (Harvard Apparatus; […], Mass.). The femoral and carotid arteries were accessed for mean arterial pressure (MAP) monitoring and blood sampling. The femoral vein was cannulated for continuous inulin infusion and saline/indomethacin/drug infusions. The left renal artery was attached with a probe for renal blood flow (RBF) measurement and a catheter was placed in the left ureter for passive urine collection. A flow-directed balloon-tipped thermodilution catheter was advanced to the pulmonary artery through the external jugular vein for measurement of cardiac filling pressures and cardiac output (CO). After a 60 minute equilibration, baseline (BL) characteristics were established. […] GFR values were calculated based on inulin clearance. Urinary sodium was measured with pHOx Ultra (Nova Biomedical; Waltham, Mass.).

[7] = 16.3 pmol/kg/min infusion for 2 hours after ACC, vs vehicle
[8] = 16.3 pmol/kg/min, compared to vehicle
[9] = postischemia phases, 16.3 pmol/kg/min, vs vehicle
[10] = HRPTC, H/R, 10^−8, 10^−7 or 10^−6 M

`CC[C@H](C)[C@@H]1NC(=O)[C@H](CCCNC(=N)N)NC(=O)[C@H](CC(=O)O)NC(=O)[C@H](CCSC)NC(=O)[C@H](CCCCN)NC(=O)[C@H](CCCNC(=N)N)NC(=O)CNC(=O)[C@H](Cc2ccccc2)NC(=O)[C@@H](NC(=O)[C@H](CO)NC(=O)[C@H](CO)NC(=O)[C@H](CCCNC(=N)N)NC(=O)[C@H](CCCNC(=N)N)NC(=O)[C@H](CC(C)C)NC(=O)[C@H](CO)NC(=O)[C@H](CCCNC(=N)N)NC(=O)[C@@H]2CCCN2C(=O)[C@H](C)NC(=O)[C@@H](N)[C@@H](C)O)CSSC[C@@H](C(=O)N[C@@H](CC(N)=O)C(=O)N[C@@H](CO)C(=O)N[C@@H](Cc2ccccc2)C(=O)N[C@@H](CCCNC(=N)N)C(=O)N[C@@H](Cc2ccc(O)cc2)C(=O)O)NC(=O)CNC(=O)[C@H](CC(C)C)NC(=O)CNC(=O)[C@H](CO)NC(=O)[C@H](CO)NC(=O)[C@H](CO)NC(=O)[C@H](CO)NC1=O` [CRRL269] (H-TAPRSLRRSSCFGRKMDRISSSSGLGCNSFRY-OH; disulfide 11-27) was tested, and the “Caspase7 gene down-regulation in PCR array” value ([1]; 10^−6 M CRRL269) was “at least two-fold”, the “number of apoptosis pathway genes down-regulated at least 2 fold” value ([1]; 10^−6 M CRRL269, 84-gene array) was 8 out of 84 and the “plasma cGMP levels” value [2, 7] was “increased”. For the same molecule, the “urinary cGMP levels” value [2, 7] was “increased”, the “renal parenchyma cGMP levels” value ([2]; 16.3 pmol/kg/min infusion for 2 hours, ex vivo cortex and medulla) was “increased” and the “urinary sodium excretion (UNaV), natriuresis” value [2, 8] was “significantly induced”. For the same molecule, the “urine output (UV), diuresis” value [2, 8] was “significantly induced”, the “plasma (circulating) ANGII levels” value ([2]; post-ischemia CL1 to CL4, 16.3 pmol/kg/min, vs vehicle) was “significantly reduced” and the “glomerular filtration rate (GFR)” value [2, 9] was “maintained”. The “renal blood flow (RBF)” value [2, 9] was “maintained”, the “apoptotic signals in HRPTC after H/R” value ([3]; CRRL269, compared to H/R group alone) was “significantly reduced” and the “anti-apoptotic effect compared to ANP” value [3, 10] was “more robust anti-apototic effects compared to ANP”. For the same molecule, the “anti-apoptotic effect in comparison with BNP” value [3, 10] was “trend of superiority”, the “cortical NPPC gene expression levels (RT-PCR)” value ([4]; AKI canine renal cortex, normalized to GAPDH, vs vehicle) was “elevated” and the “urinary CNP levels” value ([4]; AKI canines, 16.3 pmol/kg/min infusion, compared to vehicle) was “increased”. For the same molecule, the “Caspase7 gene expression level (RT-PCR)” value [5] was 1.25 fold, the “pulmonary capillary wedge pressure (PCWP)” value [6] was “reduced” and the “right atrial pressure (RAP)” value [6] was “reduced”.
